Structures can show the parent of a compound that is named as a salt.
System: SOD1
Experiment: Analysis of SOD1 in iPS cell-derived astrocytes (Western blotting)
Format: cell-based, human
Settings: astrocytes differentiated from ALS patient iPS cells (SOD1 L106V); 5 nM, 50 nM, 500 nM and 5 μM; 48 hours incubation; Western blotting vs vehicle 0.5% DMSO
Description: The iPS cell-derived astrocytes were seeded to a 6-well plate at a density of 250,000 cells/well. After a vehicle [0.5% dimethylsulfoxide (DMSO)], cycloheximide at a final concentration of 5 μg/ml, and Atorvastatin Calcium Salt (Toronto Research Chemicals Inc.) at various final concentrations (5 nM, 50 nM, 500 nM and 5 μM) were added, the plate was incubated for 48 hours. Subsequently, the cells were recovered, and lysed using a 20 mM Hepes, pH 7.4, containing 1% triton X-100, 10% glycerol, 5 mM EDTA, 120 mM NaCl and protease inhibitor cocktail (Complete; Roche), on ice for 30 minutes. The cell lysate was centrifuged at 15,000 rpm, 4° C. for 30 minutes, and the supernatant was recovered. Western blotting was performed using this cytolysis supernatant. Specifically, 20 μg aliquot of the protein was separated by SDS-PAGE (4-12% polyacrylamide gels), transferred to a PVDF membrane, and incubated with an anti-SOD1 antibody (1:2000 dilution) (Stressgen Company) or an anti-β-actin antibody (1:5000 dilution) (Sigma-Aldrich Company). After the incubation, the amount expressed was detected by ECL (Enhanced ChemiLuminescence) using an HRP-linked anti-rabbit IgG antibody (1:5000; GE healthcare) and an HRP-linked anti-mouse IgG antibody (1:5000; GE healthcare). […] Meanwhile, when the vehicle DMSO alone was added to the human iPS cell 253G4 described by Nakagawa M et al. in Nat. Biotechnol. […]

CC(C)c1c(C(=O)Nc2ccccc2)c(-c2ccccc2)c(-c2ccc(F)cc2)n1CC[C@H](O)C[C@@H](O)CC(=O)O [Atorvastatin Calcium Salt, (3R,5S)-7-[2-(4-fluorophenyl)-5-(1-methylethyl)-3-phenyl-4-phenylaminocarbonyl-1H-pyrrol-1-yl]-3,5-dihydroxyheptanoic acid]
expression of SOD1 (amount of SOD1 protein): a reduction in the expression of SOD1 was observed
